Measured values: PubChem BioAssay AID330 (DTP/NCI, 2004)
Several values for one entry are separate records, joined by “and”; a condition that tells them apart may be missing. Equal values may be shown once. Toxic doses and inconclusive results are not listed.

Test system: P388 leukemia ip, CD2F1 mice, survival T/C
Assay: NCI In Vivo Anticancer Drug Screen. Data for tumor model P388 Leukemia (intraperitoneal) in CD2F1 (CDF1) mice
Conditions: endpoint: median survival time, higher = longer survival
Procedure, shortened: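 Mice carrying the transplanted tumor received test compound or vehicle. Survival was recorded in each group, and the value is the treated-group measurement divided by that of the vehicle-treated control group.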

[1] = dose: 10.0 mg/kg/injection, schedule: Q01DX009 (ip), vehicle: saline with Tween-80
[2] = dose: 40.0 mg/kg/injection, schedule: Q01DX009 (ip), vehicle: saline with Tween-80
[3] = dose: 50.0 mg/kg/injection, schedule: Q01DX005 (ip), vehicle: Klucel (hydroxypropylcellulose) (HPC)
[4] = dose: 100.0 mg/kg/injection, schedule: Q01DX005 (ip), vehicle: Klucel (hydroxypropylcellulose) (HPC)
[5] = dose: 200.0 mg/kg/injection, schedule: Q01DX005 (ip), vehicle: Klucel (hydroxypropylcellulose) (HPC)
[6] = dose: 50.0 mg/kg/injection, schedule: Q01DX005 (ip), vehicle: saline
[7] = dose: 100.0 mg/kg/injection, schedule: Q01DX005 (ip), vehicle: saline
[8] = dose: 200.0 mg/kg/injection, schedule: Q01DX005 (ip), vehicle: saline
[9] = dose: 60.0 mg/kg/injection, schedule: Q01DX005 (ip), vehicle: Klucel (hydroxypropylcellulose) (HPC)
[10] = dose: 120.0 mg/kg/injection, schedule: Q01DX005 (ip), vehicle: Klucel (hydroxypropylcellulose) (HPC)
[11] = dose: 240.0 mg/kg/injection, schedule: Q01DX005 (ip), vehicle: Klucel (hydroxypropylcellulose) (HPC)
[12] = dose: 60.0 mg/kg/injection, schedule: Q01DX005 (ip), vehicle: saline
[13] = dose: 120.0 mg/kg/injection, schedule: Q01DX005 (ip), vehicle: saline
[14] = dose: 240.0 mg/kg/injection, schedule: Q01DX005 (ip), vehicle: saline

With `C=C[C@H](c1ccccc1O)c1cc(OC)c(OC)cc1OC` the T/C (dose: 31.75 mg/kg/injection, schedule: Q01DX005 (ip), vehicle: Klucel (hydroxypropylcellulose) (HPC)) was 104 % of control, the T/C (dose: 63.5 mg/kg/injection, schedule: Q01DX005 (ip), vehicle: Klucel (hydroxypropylcellulose) (HPC)) was 103 % of control and the T/C (dose: 127.0 mg/kg/injection, schedule: Q01DX005 (ip), vehicle: Klucel (hydroxypropylcellulose) (HPC)) was 106 % of control. For the same compound, the T/C (dose: 254.0 mg/kg/injection, schedule: Q01DX005 (ip), vehicle: Klucel (hydroxypropylcellulose) (HPC)) was 102 % of control.
With `CCCCCCCCCCCCCCCC[N+]1(CCCCCCCCCCCC)CCSCC1` (tested in a mixture with another compound) the T/C [1] was 112 % of control and the T/C [2] was 121 % of control.
In the case of `CC(C)n1cccc(C#N)c1=S`, the T/C [3] is reported as 101 % of control, the T/C [4] is reported as 98 % of control and the T/C [5] is reported as 97 % of control.
`Nc1ccc(Cn2ccc3c4c(N)nc(N)nc4ccc32)cc1` was tested, and the T/C (dose: 1.25 mg/kg/injection, schedule: Q01DX009 (ip), vehicle: saline with Tween-80) was 106 % of control and 117 % of control, the T/C (dose: 2.5 mg/kg/injection, schedule: Q01DX009 (ip), vehicle: saline with Tween-80) was 110 % of control and 111 % of control and 112 % of control and the T/C (dose: 5.0 mg/kg/injection, schedule: Q01DX009 (ip), vehicle: saline with Tween-80) was 121 % of control. For the same compound, the T/C [1] was 151 % of control and 186 % of control, the T/C (dose: 20.0 mg/kg/injection, schedule: Q01DX009 (ip), vehicle: saline with Tween-80) was 182 % of control and the T/C [2] was 105 % of control.
For `CNC(=O)Oc1c(C)[nH]ccc1=O`, the T/C (dose: 400.0 mg/kg/injection, schedule: Q01DX009 (ip), vehicle: saline) was 107 % of control.
With `O=C(N/N=C/c1ccccc1O)C(O)(c1ccccc1)c1ccccc1` the T/C (dose: 100.0 mg/kg/injection, schedule: Q04DX003 (ip), vehicle: saline with Tween-80) was 107 % of control, the T/C (dose: 200.0 mg/kg/injection, schedule: Q04DX003 (ip), vehicle: saline with Tween-80) was 101 % of control and the T/C (dose: 400.0 mg/kg/injection, schedule: Q04DX003 (ip), vehicle: saline with Tween-80) was 92 % of control.
`CC(=O)C(C)OP(=O)(O)OCC[N+](C)(C)C` (stereo not drawn) was tested, and the T/C (dose: 12.5 mg/kg/injection, schedule: Q01DX009 (ip), vehicle: saline) was 100 % of control, the T/C (dose: 25.0 mg/kg/injection, schedule: Q01DX009 (ip), vehicle: saline) was 104 % of control and the T/C (dose: 50.0 mg/kg/injection, schedule: Q01DX009 (ip), vehicle: saline) was 114 % of control.
With `COc1cc(C[C@@H](CO)[C@H](CO)Cc2ccc3c(c2)OCO3)cc(OC)c1OC` the T/C (dose: 6.25 mg/kg/injection, schedule: Q04DX002 (ip), vehicle: saline with Tween-80) was 101 % of control, the T/C (dose: 12.5 mg/kg/injection, schedule: Q04DX002 (ip), vehicle: saline with Tween-80) was 101 % of control and the T/C (dose: 25.0 mg/kg/injection, schedule: Q04DX002 (ip), vehicle: saline with Tween-80) was 93 % of control.
`CSc1ncc2c(=O)c3c(ccc4ccccc43)oc2n1` was tested, and the T/C (dose: 3.12 mg/kg/injection, schedule: Q01DX009 (ip), vehicle: saline with Tween-80) was 93 % of control, the T/C (dose: 6.25 mg/kg/injection, schedule: Q01DX009 (ip), vehicle: saline with Tween-80) was 102 % of control and the T/C (dose: 12.5 mg/kg/injection, schedule: Q01DX009 (ip), vehicle: saline with Tween-80) was 96 % of control.
With `c1cc2ccc3ccc(C4CO4)c4ccc(c1)c2c34` (stereo not drawn) the T/C (dose: 6.25 mg/kg/injection, schedule: Q01DX009 (ip), vehicle: Klucel (hydroxypropylcellulose) (HPC)) was 99 % of control, the T/C (dose: 12.5 mg/kg/injection, schedule: Q01DX009 (ip), vehicle: Klucel (hydroxypropylcellulose) (HPC)) was 103 % of control and the T/C (dose: 25.0 mg/kg/injection, schedule: Q01DX009 (ip), vehicle: Klucel (hydroxypropylcellulose) (HPC)) was 101 % of control.
`COC(=O)c1c2c(nc3ccccc13)-c1ccccc1C(C)(C)C2` was tested, and the T/C [3] was 92 % of control, the T/C [4] was 95 % of control and the T/C [5] was 96 % of control.
In the case of `CCOC(=O)C(C#N)(CCC(=NC(C)(C)C)Nc1c(Cl)cccc1Cl)CCC(=NC(C)(C)C)Nc1c(Cl)cccc1Cl` (stereo not drawn), the T/C (dose: 50.0 mg/kg/injection, schedule: Q01DX009 (ip), vehicle: saline with Tween-80) is reported as 105 % of control, the T/C (dose: 100.0 mg/kg/injection, schedule: Q01DX009 (ip), vehicle: saline with Tween-80) is reported as 101 % of control and the T/C (dose: 200.0 mg/kg/injection, schedule: Q01DX009 (ip), vehicle: saline with Tween-80) is reported as 92 % of control.
For `C1CN(C[C@H]2CO[C@H](CN3CCOCC3)CO2)CCO1`, the T/C [6] was 91 % of control, the T/C [7] was 106 % of control and the T/C [8] was 110 % of control.
`Cc1ccc(C)c(NC(=O)/C=N/O)c1` was tested, and the T/C (dose: 50.0 mg/kg/injection, schedule: Q01DX005 (ip), vehicle: saline with Tween-80) was 98 % of control, the T/C (dose: 100.0 mg/kg/injection, schedule: Q01DX005 (ip), vehicle: saline with Tween-80) was 110 % of control and the T/C (dose: 200.0 mg/kg/injection, schedule: Q01DX005 (ip), vehicle: saline with Tween-80) was 105 % of control.
For `COC(=O)N1c2ccccc2N(C(=O)OC)c2c1oc1ccccc1c2=O`, the T/C (dose: 60.0 mg/kg/injection, schedule: Q01DX005 (ip), vehicle: saline with Tween-80) was 92 % of control, the T/C (dose: 120.0 mg/kg/injection, schedule: Q01DX005 (ip), vehicle: saline with Tween-80) was 91 % of control and the T/C (dose: 240.0 mg/kg/injection, schedule: Q01DX005 (ip), vehicle: saline with Tween-80) was 101 % of control.
For `COc1cc2c(cc1Cc1cc(OC)c(OC)c(OC)c1)OCO2`, the T/C [9] was 98 % of control, the T/C [10] was 100 % of control and the T/C [11] was 98 % of control.
`C#CCOC(=O)Nc1nc2ccc([N+](=O)[O-])cc2s1` was tested, and the T/C (dose: 50.0 mg/kg/injection, schedule: Q01DX009 (ip), vehicle: Klucel (hydroxypropylcellulose) (HPC)) was 101 % of control, the T/C (dose: 100.0 mg/kg/injection, schedule: Q01DX009 (ip), vehicle: Klucel (hydroxypropylcellulose) (HPC)) was 99 % of control and the T/C (dose: 200.0 mg/kg/injection, schedule: Q01DX009 (ip), vehicle: Klucel (hydroxypropylcellulose) (HPC)) was 92 % of control.
For `CCN(CC)C1=Nc2ccccc2N(c2ccccc2)C(SC)=C1`, the T/C [3] was 111 % of control, the T/C [4] was 100 % of control and the T/C [5] was 97 % of control.
In the case of `COc1cc2c[n+](C)c3ccccc3c2cc1OC`, the T/C (dose: 12.5 mg/kg/injection, schedule: Q01DX009 (ip), vehicle: water) is reported as 112 % of control and 115 % of control, the T/C (dose: 25.0 mg/kg/injection, schedule: Q01DX009 (ip), vehicle: water) is reported as 124 % of control and the T/C (dose: 100.0 mg/kg/injection, schedule: Q01DX009 (ip), vehicle: water) is reported as 105 % of control.
In the case of `C=CC1CCCC[N+]1(C)Cc1ccccc1` (stereo not drawn), the T/C (dose: 6.25 mg/kg/injection, schedule: Q01DX005 (ip), vehicle: saline) is reported as 94 % of control and the T/C (dose: 12.5 mg/kg/injection, schedule: Q01DX005 (ip), vehicle: saline) is reported as 98 % of control.
With `O=C1C=C(n2ccccc2=O)CCC1` the T/C [12] was 93 % of control, the T/C [13] was 93 % of control and the T/C [14] was 102 % of control.
For `CCOC(=O)Cc1c[nH]c2ccc(N(CCO)CCO)cc12`, the T/C (dose: 25.0 mg/kg/injection, schedule: Q01DX005 (ip), vehicle: Klucel (hydroxypropylcellulose) (HPC)) was 101 % of control, the T/C [3] was 102 % of control and the T/C [4] was 102 % of control. For the same compound, the T/C [5] was 98 % of control.
In the case of `O=S(=O)(O)CC(O)CNC(CO)(CO)CO` (stereo not drawn), the T/C [12] is reported as 104 % of control, the T/C [13] is reported as 98 % of control and the T/C [14] is reported as 104 % of control.
`CCCCCC1NC(C)(C)CO1` (stereo not drawn) was tested, and the T/C [6] was 118 % of control, the T/C [7] was 109 % of control and the T/C [8] was 100 % of control.
For `O=C1S/C(=C2\C(=O)N(CN3CCCCC3)c3ccc(Br)cc32)C(=O)N1CN1CCCCC1`, the T/C [9] was 100 % of control, the T/C [10] was 101 % of control and the T/C [11] was 99 % of control.
`CN(C)C(=O)CC(c1ccccc1)C(CO)c1ccccc1` (stereo not drawn) was tested, and the T/C (dose: 25.0 mg/kg/injection, schedule: Q01DX001 (ip), vehicle: Klucel (hydroxypropylcellulose) (HPC)) was 88 % of control, the T/C (dose: 50.0 mg/kg/injection, schedule: Q01DX001 (ip), vehicle: Klucel (hydroxypropylcellulose) (HPC)) was 91 % of control and the T/C (dose: 100.0 mg/kg/injection, schedule: Q01DX001 (ip), vehicle: Klucel (hydroxypropylcellulose) (HPC)) was 89 % of control. The T/C (dose: 200.0 mg/kg/injection, schedule: Q01DX001 (ip), vehicle: Klucel (hydroxypropylcellulose) (HPC)) was 88 % of control.
`O=C(O)c1cccc(C(=O)O)c1S(=O)c1ccccc1` (stereo not drawn) was tested, and the T/C (dose: 100.0 mg/kg/injection, schedule: Q04DX002 (ip), vehicle: other) was 102 % of control, the T/C (dose: 200.0 mg/kg/injection, schedule: Q04DX002 (ip), vehicle: other) was 103 % of control and the T/C (dose: 400.0 mg/kg/injection, schedule: Q04DX002 (ip), vehicle: other) was 94 % of control.
